Measured values reported in the NIST ThermoML archive (doi:10.1021/je0501843).

Assay: molar heat capacity at constant volume; wn = mass fraction of the nth substance listed
Settings: Fluid (supercritical or subcritical phases), Vacuum adiabatic calorimetry, w1 = 0.5001

FC(F)C(F)(F)F [pentafluoroethane] + FCF
Settings	molar heat capacity at constant volume [J/K/mol]
363 K, 13894 kPa	70.07
364 K, 6970 kPa	80.93
364 K, 7223 kPa	79.29
364 K, 7494 kPa	80.29
364 K, 7828 kPa	75.98
364 K, 10192 kPa	72.66
364 K, 14207 kPa	69.59
365 K, 7077 kPa	80.93
365 K, 7344 kPa	79.26
365 K, 7632 kPa	79.75
365 K, 7982 kPa	75.67
365 K, 10427 kPa	72.54
365 K, 14520 kPa	69.04
366 K, 7184 kPa	80.58
366 K, 7465 kPa	80.45
366 K, 7771 kPa	80.4
366 K, 8137 kPa	76.08
366 K, 10664 kPa	73.17
366 K, 14835 kPa	69.94
367 K, 7291 kPa	80.32
367 K, 7587 kPa	79.46
367 K, 7907 kPa	79.31
367 K, 8294 kPa	74.79
367 K, 10900 kPa	72.03
367 K, 15148 kPa	69.1
368 K, 7397 kPa	79.17
368 K, 7708 kPa	77.58
368 K, 8044 kPa	77.88
368 K, 8449 kPa	74.12
368 K, 11133 kPa	71.25
368 K, 15462 kPa	68.32
369 K, 7504 kPa	79.62
369 K, 7831 kPa	78.35
369 K, 8183 kPa	78.65
369 K, 8605 kPa	76.18
369 K, 11369 kPa	72.83
369 K, 15777 kPa	69.74
370 K, 7612 kPa	79.45
370 K, 7953 kPa	77.86
370 K, 8323 kPa	77.55
370 K, 8762 kPa	76.14
370 K, 11608 kPa	72.92
370 K, 16094 kPa	69.84
371 K, 7719 kPa	78.97
371 K, 8075 kPa	77.56
371 K, 8460 kPa	76.45
371 K, 8917 kPa	74.86
371 K, 11844 kPa	72.52
371 K, 16410 kPa	69.31
372 K, 7825 kPa	78.44
372 K, 8198 kPa	77.29
372 K, 8601 kPa	75.95
372 K, 9073 kPa	74.57
372 K, 12081 kPa	71.78
372 K, 16724 kPa	69.08
373 K, 7931 kPa	77.94
373 K, 8321 kPa	76.93
373 K, 8740 kPa	76.42
373 K, 9230 kPa	74.03
373 K, 12318 kPa	72.32
373 K, 17037 kPa	69.04
374 K, 8039 kPa	79.02
374 K, 8445 kPa	77.8
374 K, 8878 kPa	77.52
374 K, 9389 kPa	74.39
374 K, 12556 kPa	73.35
374 K, 17355 kPa	69.94
375 K, 8147 kPa	78.2
375 K, 8567 kPa	75.61
375 K, 9016 kPa	76.25
375 K, 9544 kPa	73.41
375 K, 12795 kPa	71.55
375 K, 17669 kPa	69.58
376 K, 8254 kPa	77.5
376 K, 8690 kPa	75.69
376 K, 9155 kPa	75.06
376 K, 9701 kPa	73.09
376 K, 13033 kPa	71.53
376 K, 17984 kPa	69.16
377 K, 8362 kPa	78.12
377 K, 8813 kPa	76.87
377 K, 9295 kPa	76.67
377 K, 9858 kPa	74.31
377 K, 13272 kPa	72.67
377 K, 18301 kPa	69.67
378 K, 8469 kPa	77.78
378 K, 8937 kPa	76.5
378 K, 9437 kPa	77.01
378 K, 10018 kPa	74.83
378 K, 13511 kPa	71.98
378 K, 18619 kPa	69.86
379 K, 8575 kPa	76.76
379 K, 9060 kPa	75.82
379 K, 9576 kPa	76.42
379 K, 10174 kPa	74.57
379 K, 13747 kPa	71.87
379 K, 18935 kPa	70.14
380 K, 8683 kPa	76.61
